Where two headings read alike, the source gives them in different places.
Key:
[1] = tested on: human H1N1 influenza A strain PR8; format: cell-based; conditions: 0.1% quinine in 0.9% sodium chloride from 1 h post infection, daily, 72 hrs
nitric oxide (NO) = assay: NO production after nasal instillation in ferrets (nasal wash); format: in vivo, ferret
[2] = tested on: human ciliated sinonasal air-liquid-interface (ALI) cells
airway inflammation = conditions: murine model; cited from earlier work
[3] = tested on: SARS-CoV-2 (UPenn/Philadelphia strain); assay: Human sinonasal ALI infection with SARS-CoV-2, nucleocapsid staining and quantitative fluorescence imaging; conditions: 1 mg/mL quinine sulfate, 48 hrs; average of two measurements

C=C[C@H]1C[N@@]2CC[C@H]1C[C@H]2[C@H](O)c1ccnc2ccc(OC)cc12 [quinine]
transcripts for both the NP and IAV-M genes ([1]; subject A cells, MOI of 1): lesser relative reduction | transcripts for both the NP and IAV-M genes ([1]; subject B (more mature) ALI culture): marked relative reduction | NO in nasal wash (nitric oxide (NO); 5 min after 200 μL of 1 mg/mL solution intranasal): 6.64 ng/mL | NO in nasal wash (nitric oxide (NO); 10 min after 200 μL of 1 mg/mL solution intranasal): 6.42 ng/mL | NO in nasal wash (nitric oxide (NO); 15 min after 200 μL of 1 mg/mL solution intranasal): 6.52 ng/mL | cell viability [2]: remained viable and visually healthy | airway inflammation (BAL, histology, PFTs) (airway inflammation): reduce airway inflammation | Quinine Rx (% infected) [3]: 2.32%

From patent US20230144186A1 (The Trustees of the University of Pennsylvania, priority 2020, published 2023)
